# In paper PMC7508628, “Targeting the Respiratory Syncytial Virus N^0-P Complex with Constrained α-Helical Peptides in Cells and Mice” (Antimicrobial Agents and Chemotherapy, 2020):
# Where a SMILES comes first, the peptide text is derived from it. Bridges are numbered along the chain shown (N, C = ends). [ ]: non-standard residue; d: D form. R8 = C=CCCCCCC[C@@](C)(N)C(=O)O; R5 = C=CCCC[C@@](C)(N)C(=O)O; S5 = C=CCCC[C@](C)(N)C(=O)O
# What was measured:
# [1] = target: monomeric N protein (N^mono), recombinant N^K170A/R185A (Human respiratory syncytial virus A, UniProt P03418, K170A/R185A); assay: Fluorescence polarization competition assay: displacement of FAM–P(1–40) from monomeric N; assay type: binding; settings: FP competition with FAM–P(1–40) probe
# [2] = Circular dichroism spectroscopy, α-helical content; assay type: physicochemical; settings: CD, 10 mM phosphate buffer pH 7.5, 50 μM peptide, 25°C, calculated from ellipticity at 222 nm; average of three measurements
# Protocol: The α-helical stabilization appeared to be higher for the i, i + 7 staples overall.
# The circular dichroism spectra were acquired on a Chirascan spectropolarimeter. The samples were prepared in 10 mM phosphate buffer, pH 7.5, at a peptide concentration of 50 μM. Data were recorded at 25°C by step scan from 180 nm to 260 nm in a 0.5-mm-pathlength quartz cell using 0.2-nm-wavelength increments, a 1-nm bandwidth, and a response time of 1 s. Each spectrum was an average of three measurements and was subtracted from the buffer baseline. The data were converted to per residue molar ellipticity units (θ; in degrees · square centimeters · decimoles^−1 · number of residues^−1) and smoothed using Igor Pro software. Percent helicity was calculated as follows: (100 × CD222)/(C × N × {40,000 × [1 − (2.5/N)]}), where CD222 is the molar ellipticity (θ) at 222 nm (in millidegrees), N is the number of amino acids in the peptide, and C is the peptide molar concentration (in moles per liter).
# circular dichroism = settings: 10 mM phosphate; pH 7.5; 25 °C; 50 uM
# rHRSV-mCherry = settings: read-out: EC50 (half-maximal response inhibitory concentration), inhibition of RSV infection; HEp-2 cells, MOI 0.2, peptides added after 2 h infection, mCherry fluorescence at 48 h postinfection; duplicates
# Chain of monomeric N protein (N^mono), recombinant N^K170A/R185A (P03418 whole entry K170A/R185A, looked up): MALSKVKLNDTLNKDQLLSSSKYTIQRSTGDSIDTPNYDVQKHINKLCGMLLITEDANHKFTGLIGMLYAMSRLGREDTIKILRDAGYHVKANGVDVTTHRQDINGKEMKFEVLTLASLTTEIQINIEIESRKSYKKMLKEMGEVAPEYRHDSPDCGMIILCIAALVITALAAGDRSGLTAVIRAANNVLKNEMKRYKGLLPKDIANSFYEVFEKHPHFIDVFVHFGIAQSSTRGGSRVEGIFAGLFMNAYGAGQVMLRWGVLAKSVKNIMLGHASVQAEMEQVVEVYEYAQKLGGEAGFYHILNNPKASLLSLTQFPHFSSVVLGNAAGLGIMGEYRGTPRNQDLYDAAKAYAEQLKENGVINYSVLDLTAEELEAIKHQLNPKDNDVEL
Structure (SMILES),Competitive binding to N^mono (in words) [1],% helicity [2],helicity (circular dichroism),EC50 (rHRSV-mCherry)
CC[C@H](C)[C@H](NC(=O)[C@H](CO)NC(=O)[C@H](CCC(=O)O)NC(=O)[C@H](CC(C)C)NC(=O)[C@H](Cc1ccccc1)NC(=O)[C@H](CCCCN)NC(=O)[C@@H](NC(=O)[C@H](C)NC(=O)[C@H](CCCCN)NC(=O)[C@H](CC(N)=O)NC(=O)[C@H](CC(N)=O)NC(=O)[C@H](C)NC(=O)[C@H](CC(=O)O)NC(=O)[C@H](CCC(=O)O)NC(C)=O)[C@@H](C)O)C(=O)N[C@@H](CCCCN)C(=O)NCC(=O)N[C@]1(C)CCCC=CCCC[C@@](C)(C(N)=O)NC(=O)[C@H](C)NC(=O)[C@H](Cc2ccccc2)NC1=O [1g] (Ac-EDANNKATKFLESIKG[R5]FA[S5]-NH2; staple 17-20),detrimental to the binding,25.5%,25.5%,
CC[C@H](C)[C@H](NC(=O)[C@H](CO)NC(=O)[C@H](CCC(=O)O)NC(=O)[C@H](CC(C)C)NC(=O)[C@H](Cc1ccccc1)NC(=O)[C@H](CCCCN)NC(=O)[C@]1(C)CCCC=CCCC[C@@](C)(NC(=O)[C@H](CC(N)=O)NC(=O)[C@H](C)NC(=O)[C@H](CC(=O)O)NC(=O)[C@H](CCC(=O)O)NC(C)=O)C(=O)N[C@@H](CCCCN)C(=O)N[C@@H](C)C(=O)N1)C(=O)N[C@@H](CCCCN)C(=O)NCC(=O)N[C@@H](CCCCN)C(=O)N[C@@H](Cc1ccccc1)C(=O)N[C@@H](C)C(=O)N[C@@H](CO)C(N)=O [1a] (Ac-EDAN[R5]KA[S5]KFLESIKGKFAS-NH2; staple 5-8),detrimental to the binding,5.5%,5.5%,
"CC[C@H](C)[C@H](NC(=O)[C@H](CO)NC(=O)[C@]1(C)CCCC=CCCC[C@@](C)(NC(=O)[C@@H](NC(=O)[C@H](C)NC(=O)[C@H](CCCCN)NC(=O)[C@H](CC(N)=O)NC(=O)[C@H](CC(N)=O)NC(=O)[C@H](C)NC(=O)[C@H](CC(=O)O)NC(=O)[C@H](CCC(=O)O)NC(=O)CNC(=O)[C@H](Cc2c[nH]cn2)NC(=O)[C@H](Cc2ccccc2)NC(=O)[C@H](CCC(=O)O)NC(C)=O)[C@@H](C)O)C(=O)N[C@@H](Cc2ccccc2)C(=O)N[C@@H](CC(C)C)C(=O)N1)C(=O)N[C@@H](CCCCN)C(=O)N[C@]1(C)CCCC=CCCC[C@@](C)(C(=O)N[C@@H](CO)C(N)=O)NC(=O)[C@H](Cc2ccccc2)NC(=O)[C@H](CCCCN)NC1=O [1c1f] (Ac-EFHGEDANNKAT[R5]FL[S5]SIK[R5]KF[S5]S-NH2; staple 13-16, 20-23)",,39.2%,,> 100 µM
CC(=O)N[C@@H](CCC(=O)O)C(=O)N[C@@H](CC(=O)O)C(=O)N[C@@H](C)C(=O)N[C@@H](CC(N)=O)C(=O)N[C@@H](CC(N)=O)C(=O)N[C@@H](CCCCN)C(=O)N[C@@H](C)C(=O)N[C@H](C(=O)N[C@@H](CCCCN)C(=O)N[C@@]1(C)CCCC=CCCC[C@@](C)(C(=O)N[C@@H](CCCCN)C(=O)NCC(=O)N[C@@H](CCCCN)C(=O)N[C@@H](Cc2ccccc2)C(=O)N[C@@H](C)C(=O)N[C@@H](CO)C(N)=O)NC(=O)[C@H](CO)NC(=O)[C@H](CCC(=O)O)NC(=O)[C@H](CC(C)C)NC1=O)[C@@H](C)O [2d] (Ac-EDANNKATK[S5]LES[S5]KGKFAS-NH2; staple 10-14),no competition could be observed,10.1%,10.1%,
"CC[C@H](C)[C@H](NC(=O)[C@]1(C)CCCC=CCCCCCC[C@@](C)(NC(=O)[C@H](CC(N)=O)NC(=O)[C@H](CC(N)=O)NC(=O)[C@H](C)NC(=O)[C@]2(C)CCCC=CCCC[C@@](C)(NC(=O)[C@H](Cc3ccccc3)NC(=O)[C@H](CCC(=O)O)NC(C)=O)C(=O)NCC(=O)N[C@@H](CCC(=O)O)C(=O)N2)C(=O)N[C@@H](C)C(=O)N[C@@H]([C@@H](C)O)C(=O)N[C@@H](CCCCN)C(=O)N[C@@H](Cc2ccccc2)C(=O)N[C@@H](CC(C)C)C(=O)N[C@@H](CCC(=O)O)C(=O)N1)C(=O)N[C@@H](CCCCN)C(=O)NCC(=O)N[C@@H](CCCCN)C(=O)N[C@@H](Cc1ccccc1)C(=O)N[C@@H](C)C(=O)N[C@@H](CO)C(N)=O [4a3b] (Ac-EF[R5]GE[S5]ANN[R8]ATKFLE[S5]IKGKFAS-NH2; staple 3-6, 10-17)",inactive,73.2%,,14.6 ± 13.9 µM
"CC[C@H](C)[C@H](NC(=O)[C@]1(C)CCCC=CCCCCCC[C@@](C)(NC(=O)[C@H](CC(N)=O)NC(=O)[C@H](CC(N)=O)NC(=O)[C@H](C)NC(=O)[C@H](CC(=O)O)NC(=O)[C@H](CCC(=O)O)NC(=O)CNC(=O)[C@H](Cc2c[nH]cn2)NC(=O)[C@H](Cc2ccccc2)NC(=O)[C@H](CCC(=O)O)NC(C)=O)C(=O)N[C@@H](C)C(=O)N[C@@H]([C@@H](C)O)C(=O)N[C@@H](CCCCN)C(=O)N[C@@H](Cc2ccccc2)C(=O)N[C@@H](CC(C)C)C(=O)N[C@@H](CCC(=O)O)C(=O)N1)C(=O)N[C@@H](CCCCN)C(=O)N[C@]1(C)CCCC=CCCC[C@@](C)(C(=O)N[C@@H](CO)C(N)=O)NC(=O)[C@H](Cc2ccccc2)NC(=O)[C@H](CCCCN)NC1=O [3b1f] (Ac-EFHGEDANN[R8]ATKFLE[S5]IK[R5]KF[S5]S-NH2; staple 10-17, 20-23)",,46.6%,,> 100 µM
CC(=O)N[C@@H](CCC(=O)O)C(=O)N[C@@H](CC(=O)O)C(=O)N[C@@H](C)C(=O)N[C@@H](CC(N)=O)C(=O)N[C@@H](CC(N)=O)C(=O)N[C@@H](CCCCN)C(=O)N[C@@H](C)C(=O)N[C@H](C(=O)N[C@@H](CCCCN)C(=O)N[C@@H](Cc1ccccc1)C(=O)N[C@]1(C)CCCC=CCCC[C@@](C)(C(=O)N[C@@H](CCCCN)C(=O)NCC(=O)N[C@@H](CCCCN)C(=O)N[C@@H](Cc2ccccc2)C(=O)N[C@@H](C)C(=O)N[C@@H](CO)C(N)=O)NC(=O)[C@H](CO)NC(=O)[C@H](CCC(=O)O)NC1=O)[C@@H](C)O [1d] (Ac-EDANNKATKF[R5]ES[S5]KGKFAS-NH2; staple 11-14),no competition could be observed,24.2%,24.2%,
"CC[C@H](C)[C@H](NC(=O)[C@]1(C)CCCC=CCCCCCC[C@@](C)(NC(=O)[C@H](CC(N)=O)NC(=O)[C@H](CC(N)=O)NC(=O)[C@H](C)NC(=O)[C@]2(C)CCCC=CCCC[C@](C)(NC(=O)[C@H](CCC(=O)O)NC(C)=O)C(=O)N[C@@H](Cc3c[nH]cn3)C(=O)NCC(=O)N[C@@H](CCC(=O)O)C(=O)N2)C(=O)N[C@@H](C)C(=O)N[C@@H]([C@@H](C)O)C(=O)N[C@@H](CCCCN)C(=O)N[C@@H](Cc2ccccc2)C(=O)N[C@@H](CC(C)C)C(=O)N[C@@H](CCC(=O)O)C(=O)N1)C(=O)N[C@@H](CCCCN)C(=O)NCC(=O)N[C@@H](CCCCN)C(=O)N[C@@H](Cc1ccccc1)C(=O)N[C@@H](C)C(=O)N[C@@H](CO)C(N)=O [4c3b] (Ac-E[S5]HGE[S5]ANN[R8]ATKFLE[S5]IKGKFAS-NH2; staple 2-6, 10-17)",,34.2%,,39.9 ± 4.5 µM
